{"source": "ChEMBL document CHEMBL5149974", "about": "“Antimicrobial drugs bearing guanidine moieties: A review” (Eur J Med Chem, 2021)", "key": {"[1]": {"tested_on": "Mycolicibacterium smegmatis", "test": "Potentiation of cefotaxime-induced antibacterial activity against Mycobacterium smegmatis assessed as cefotaxime MIC incubated for 48 hrs by alamar blue assay (reference value: 64 ug/ml)", "type": "functional"}, "[2]": {"tested_on": "Mycobacterium tuberculosis", "test": "Anti-mycobacterial activity against Mycobacterium tuberculosis H37Rv assessed as bacterial growth inhibition incubated for 7 days by REMA assay", "type": "functional", "details": "168 h, time 7 day"}, "Staphylococcus aureus [3]": {"tested_on": "Staphylococcus aureus", "test": "Antibacterial activity against Staphylococcus aureus assessed as bacterial growth inhibition incubated for 18 to 24 hrs by broth microdilution assay", "type": "functional", "details": "time 18-24 hrs"}, "Escherichia coli [4]": {"tested_on": "Escherichia coli", "test": "Antibacterial activity against Escherichia coli assessed as bacterial growth inhibition incubated for 18 to 24 hrs by broth microdilution assay", "type": "functional", "details": "time 18-24 hrs"}, "Staphylococcus aureus [5]": {"tested_on": "Staphylococcus aureus", "test": "Antibacterial activity against methicillin-resistant Staphylococcus aureus ATCC 33591 assessed as bacterial growth inhibition by CLSI based broth microdilution method", "type": "functional"}, "[6]": {"tested_on": "Mycobacterium tuberculosis", "test": "Anti-mycobacterial activity against Mycobacterium tuberculosis H37Rv ATCC […] assessed as bacterial growth inhibition by alamar blue assay", "type": "functional"}, "Escherichia coli [7]": {"tested_on": "Escherichia coli", "test": "Antibacterial activity against Escherichia coli assessed as bacterial growth inhibition incubated for 24 hrs", "type": "functional"}, "Staphylococcus aureus [8]": {"tested_on": "Staphylococcus aureus", "test": "Antibacterial activity against methicillin-resistant Staphylococcus aureus assessed as bacterial growth inhibition", "type": "functional"}, "[9]": {"tested_on": "Staphylococcus epidermidis", "test": "Antibacterial activity against methicillin-resistant Staphylococcus epidermidis assessed as bacterial growth inhibition", "type": "functional"}, "Enterococcus faecalis": {"tested_on": "Enterococcus faecalis", "test": "Antibacterial activity against vancomycin-resistant Enterococcus faecalis assessed as bacterial growth inhibition", "type": "functional"}, "Escherichia coli [10]": {"tested_on": "Escherichia coli", "test": "Antibacterial activity against Escherichia coli assessed as bacterial growth inhibition", "type": "functional"}, "Klebsiella pneumoniae": {"tested_on": "Klebsiella pneumoniae", "test": "Antibacterial activity against Klebsiella pneumoniae assessed as bacterial growth inhibition", "type": "functional"}, "Pseudomonas aeruginosa": {"tested_on": "Pseudomonas aeruginosa", "test": "Antibacterial activity against Pseudomonas aeruginosa assessed as bacterial growth inhibition", "type": "functional"}, "Clostridioides difficile": {"tested_on": "Clostridioides difficile", "test": "Antibacterial activity against Clostridium difficile assessed as bacterial growth inhibition incubated for 24 hrs", "type": "functional"}, "Staphylococcus aureus [11]": {"tested_on": "Staphylococcus aureus", "test": "Antibacterial activity against Staphylococcus aureus assessed as bacterial growth inhibition incubated for 24 hrs", "type": "functional"}, "[12]": {"test": "Inhibition of Mycobacterium smegmatis biofilm fromation incubated for 48 hrs by crystal violet staining based analysis", "type": "functional, Mycolicibacterium smegmatis"}, "Plasmodium falciparum": {"tested_on": "Plasmodium falciparum", "test": "Antiplasmodial activity against Plasmodium falciparum", "type": "functional, organism-based"}, "[13]": {"tested_on": "Mycobacterium tuberculosis", "test": "Potentiation of isoniazid-induced antimycobacterial activity against Mycobacterium tuberculosis H37Rv assessed as reduction in isoniazid MIC at 250 uM incubated for 48 hrs by alamar blue staining based analysis", "type": "functional"}, "[14]": {"tested_on": "Mycobacterium tuberculosis", "test": "Potentiation of isoniazid-induced antimycobacterial activity against Mycobacterium tuberculosis H37Rv assessed as reduction in isoniazid MIC at 125 uM incubated for 48 hrs by alamar blue staining based analysis", "type": "functional"}, "Nakaseomyces glabratus [15]": {"tested_on": "Nakaseomyces glabratus", "test": "Synergistic antifungal activity against Candida glabrata assessed as fractional inhibitory concentration index in presence of fluconazole incubated for 18 hrs by checkerboard assay", "type": "functional"}, "Nakaseomyces glabratus [16]": {"tested_on": "Nakaseomyces glabratus", "test": "Synergistic antifungal activity against Candida glabrata assessed as fractional inhibitory concentration index in presence of voriconazole incubated for 18 hrs by checkerboard assay", "type": "functional"}, "Nakaseomyces glabratus [17]": {"tested_on": "Nakaseomyces glabratus", "test": "Synergistic antifungal activity against Candida glabrata assessed as fractional inhibitory concentration index in presence of amphotericin incubated for 18 hrs by checkerboard assay", "type": "functional"}, "[18]": {"tested_on": "Mycobacterium tuberculosis", "test": "Anti-mycobacterial activity against Mycobacterium tuberculosis H37Rv assessed as growth inhibition incubated for 48 hrs by alamar blue staining based analysis", "type": "functional"}}}
{"smiles": "CCCCCCCC(NC(=O)CCCc1c[nH]c(N)n1)c1ccccc1", "note": "(stereo unspecified)", "values": [{"measurement": "MIC", "setting": "[1]", "result": 2, "unit": "µg/mL"}]}
{"smiles": "COc1ccc(C2C(C(C)=O)=C(C)Nc3nc(N)[nH]c(=O)c32)cc1OC", "note": "(stereo unspecified)", "values": [{"measurement": "MIC", "setting": "[2]", "result": 1.95, "unit": "µg/mL"}]}
{"smiles": "N=C(N)NCCNC(=O)[C@H](Cc1c[nH]c2ccccc12)NC(=O)c1cc(Br)ccc1NC(=O)c1ccc2ccccc2c1", "values": [{"measurement": "MIC", "setting": "Staphylococcus aureus [3]", "result": 2, "unit": "µM"}, {"measurement": "MIC", "setting": "Escherichia coli [4]", "result": 15.6, "unit": "µM"}]}
{"smiles": "N=C(N)NC[C@H]1OC(O[C@@H]2[C@@H](O)[C@H](O[C@H]3O[C@H](CN)[C@@H](O)[C@H](O)[C@H]3O)[C@@H](N)C[C@H]2N)[C@H](O)[C@@H](N)[C@@H]1O", "note": "(stereo partly specified)", "values": [{"measurement": "MIC", "setting": "Staphylococcus aureus [5]", "result": 3.12, "unit": "µg/mL"}]}
{"smiles": "Cc1nn(-c2ccccc2)c(Cl)c1-c1nc(N)nc2c1c(C)nn2-c1ccccc1Cl", "values": [{"measurement": "MIC", "setting": "[6]", "result": 1.2, "unit": "µg/mL"}]}
{"smiles": "COC(=O)C(CCCCNC(=N)N)NC(=O)C(=O)c1cc(Br)ccc1NC(=O)c1ccc2ccccc2c1.Cl", "note": "(stereo unspecified)", "values": [{"measurement": "MIC", "setting": "Escherichia coli [7]", "result": 19, "unit": "µg/mL"}]}
{"smiles": "CCCCCCN1C(=N)N(CC(=O)Nc2cccc(NC(=O)CN3C[C@H](Cc4ccccc4)N(CCCCCC)C3=N)c2)C[C@@H]1Cc1ccccc1", "values": [{"measurement": "MIC", "setting": "Staphylococcus aureus [8]", "result": 0.16, "unit": "µg/mL"}, {"measurement": "MIC", "setting": "[9]", "result": 0.75, "unit": "µg/mL"}, {"measurement": "MIC", "setting": "Enterococcus faecalis", "result": 0.75, "unit": "µg/mL"}, {"measurement": "MIC", "setting": "Escherichia coli [10]", "result": 0.75, "unit": "µg/mL"}, {"measurement": "MIC", "setting": "Klebsiella pneumoniae", "result": 0.75, "unit": "µg/mL"}, {"measurement": "MIC", "setting": "Pseudomonas aeruginosa", "result": 4, "unit": "µg/mL"}, {"measurement": "MIC", "setting": "Clostridioides difficile", "result": 1, "unit": "µg/mL"}]}
{"smiles": "COC(=O)C(CCCNC(=N)N)NC(=O)C(CCCCNC(=N)N)NC(=O)C(=O)c1cc(Br)ccc1NC(=O)c1ccc2ccccc2c1.Cl.Cl", "note": "(stereo unspecified)", "values": [{"measurement": "MIC", "setting": "Staphylococcus aureus [11]", "result": 10, "unit": "µg/mL"}]}
{"smiles": "CCCCCOc1ccc(-c2nc(N)[nH]c2C(F)(F)F)cc1", "values": [{"measurement": "IC50", "setting": "[12]", "result": "< 10", "unit": "µM"}]}
{"smiles": "CCC/C=C\\CCC[C@@H]1C2N=C(N)N[C@H]3CC[C@@H](C[C@H]1CCC)C23", "note": "(stereo partly specified)", "values": [{"measurement": "IC50", "setting": "Plasmodium falciparum", "result": 8.37, "unit": "µM"}]}
{"smiles": "N=C(N)NCCNC(=O)[C@H](Cc1c[nH]c2ccccc12)NC(=O)c1cc(F)ccc1NC(=O)c1ccc2ccccc2c1", "values": [{"measurement": "MIC", "setting": "Staphylococcus aureus [3]", "result": 2, "unit": "µM"}]}
{"smiles": "CCCCCCc1ccc(-c2nc(N)[nH]c2C(F)(F)F)cc1", "values": [{"measurement": "IC50", "setting": "[12]", "result": "< 10", "unit": "µM"}]}
{"smiles": "CCCCCCC(CCCCCC)NC(=O)CCCc1c[nH]c(N)n1", "values": [{"measurement": "MIC", "setting": "[13]", "result": 0.039, "unit": "µg/mL"}, {"measurement": "MIC", "setting": "[14]", "result": 0.039, "unit": "µg/mL"}]}
{"smiles": "CCCCNC(=N)NC(=N)N", "note": "[BUFORMIN]", "values": [{"measurement": "fractional inhibitory concentration index (FICI)", "setting": "Nakaseomyces glabratus [15]", "result": 0.5}, {"measurement": "fractional inhibitory concentration index (FICI)", "setting": "Nakaseomyces glabratus [16]", "result": 0.5}, {"measurement": "fractional inhibitory concentration index (FICI)", "setting": "Nakaseomyces glabratus [17]", "result": 0.5}]}
{"smiles": "NNC(=O)c1ccncc1", "note": "[ISONIAZID]", "values": [{"measurement": "MIC", "setting": "[18]", "result": 0.625, "unit": "µg/mL"}]}
{"smiles": "CN(C)C(=N)NC(=N)N", "note": "[METFORMIN]", "values": [{"measurement": "fractional inhibitory concentration index (FICI)", "setting": "Nakaseomyces glabratus [15]", "result": 0.5}, {"measurement": "fractional inhibitory concentration index (FICI)", "setting": "Nakaseomyces glabratus [16]", "result": 0.5}, {"measurement": "fractional inhibitory concentration index (FICI)", "setting": "Nakaseomyces glabratus [17]", "result": 0.5}]}
{"smiles": "N=C(N)NC(=N)NCCc1ccccc1", "note": "[PHENFORMIN]", "values": [{"measurement": "fractional inhibitory concentration index (FICI)", "setting": "Nakaseomyces glabratus [15]", "result": 0.5}, {"measurement": "fractional inhibitory concentration index (FICI)", "setting": "Nakaseomyces glabratus [16]", "result": 0.5}, {"measurement": "fractional inhibitory concentration index (FICI)", "setting": "Nakaseomyces glabratus [17]", "result": 0.5}]}
